In brackets after ≈: the same amount, converted by molar mass.
Key:
[1] = tested on: Rattus norvegicus; experiment: Iron scavenging activity in 59Fe-ferritin-loaded rat assessed as iron mobilization efficacy at 450 umol/kg, po dosed 1 hr after 59Fe-ferritin injection and measured 24 hrs after 59Fe-ferritin injection by gamma counting method relative to control; assay type: functional; conditions: dose 450 µmol/kg; time 23 hrs
[2] = Binding affinity to iron assessed as pFe3+ at pH 7.45
[3] = biological target: T1, Amyloid-beta precursor protein (Homo sapiens, UniProt P05067); experiment: Inhibition of self-induced amyloid beta (1 to 42) (unknown origin) aggregation by ThT fluorescence assay
[4] = biological target: T1, Amyloid-beta precursor protein; experiment: Inhibition of self-induced amyloid beta (1 to 42) (unknown origin) aggregation by ThT fluorescence assay relative to control; conditions: concentration not given here
[5] = Antioxidant activity assessed as ABTS radical scavenging activity by trolox-equivalent antioxidant capacity assay; assay type: functional
[6] = tested on: Pseudomonas aeruginosa; experiment: Antibacterial activity against Pseudomonas aeruginosa incubated for 2 hrs followed by sterilized TSB addition and measured after 24 hrs by visual inspection; assay type: functional; conditions: time 26 hrs
[7] = tested on: Escherichia coli; experiment: Antibacterial activity against Escherichia coli incubated for 2 hrs followed by sterilized TSB addition and measured after 24 hrs by visual inspection; assay type: functional; conditions: time 26 hrs
[8] = tested on: Bacillus subtilis; experiment: Antibacterial activity against Bacillus subtilis incubated for 2 hrs followed by sterilized TSB addition and measured after 24 hrs by visual inspection; assay type: functional; conditions: time 26 hrs
[9] = tested on: Staphylococcus aureus; experiment: Antibacterial activity against Staphylococcus aureus incubated for 2 hrs followed by sterilized TSB addition and measured after 24 hrs by visual inspection; assay type: functional; conditions: time 26 hrs
[10] = Electrochemical behavior of the compound assessed as redox potential; assay type: physicochemical
[11] = Binding affinity to iron assessed as pFe3+
[12] = tested on: Rattus norvegicus; experiment: Iron scavenging activity in 59Fe-ferritin-loaded Wistar rat assessed as iron mobilization efficacy at 450 umol/kg, po dosed 1 hr after 59Fe-ferritin injection and measured 24 hrs after 59Fe-ferritin injection by gamma counting method relative to control; assay type: functional; conditions: dose 450 µmol/kg
[13] = tested on: Human immunodeficiency virus 1; experiment: Antiviral activity against HIV1 BaL infected in human peripheral blood lymphocytes assessed as reduction in p24 production incubated for 5 days by ELISA; assay type: functional, organism-based; conditions: Human immunodeficiency virus 1, BaL, PBL, 120 h
[14] = Binding affinity to iron assessed as pFe3+ at pH 7.4
[15] = Octanol-buffer partition coefficient, logP of the compound at pH 7.4 by shake flask method; assay type: physicochemical
[16] = biological target: T2, Acetylcholinesterase (Electrophorus electricus, UniProt O42275); experiment: Inhibition of electric eel AChE using acetylthiocholine iodide as substrate preincubated for 15 mins followed by substrate addition and measured for 5 mins by Ellman's method
[17] = Binding affinity to Fe3+ assessed as pFe by UV-Vis spectrophotometric method
[18] = biological target: T1, Amyloid-beta precursor protein; experiment: Inhibition of self-induced amyloid beta (1 to 42) (unknown origin) aggregation measured after 24 hrs by ThT fluorescence assay relative to control; conditions: concentration not given here
[19] = Antioxidant activity assessed as DPPH radical scavenging activity incubated for 30 mins by UV-Vis spectrophotometric method; assay type: functional
[20] = tested on: Plasmodium falciparum; experiment: Antiplasmodial activity against Plasmodium falciparum NF54 treated for 96 hrs with replacement of growth medium once a day for 4 days; assay type: functional, organism-based; conditions: NF54, 96 h
[21] = biological target: T2, Acetylcholinesterase; experiment: Inhibition of electric eel AChE using acetylthiocholine iodide as substrate preincubated for 5 mins followed by substrate addition and measured after 2 mins by Ellman's method
[22] = biological target: T2, Acetylcholinesterase; experiment: Inhibition of electric eel AChE using acetylthiocholine iodide as substrate preincubated for 15 mins followed by substrate addition and measured for 5 mins by Ellman's reagent based UV-Vis spectrophotometric method
[23] = Antioxidant activity assessed as DPPH radical scavenging activity incubated for 30 mins by absorbance method; assay type: functional
[24] = biological target: T1, Amyloid-beta precursor protein; experiment: Inhibition of human amyloid beta (1 to 42) aggregation incubated for 24 hrs by ThT fluorescence assay; conditions: concentration not given here
[25] = Binding affinity to Fe3+ assessed as pFe at by potentiometric/UV-Vis spectrophotometric method
[26] = biological target: Acetylcholinesterase (Torpedo californica, UniProt P04058); experiment: Inhibition of Torpedo californica AChE using acetylthiocholine iodide as substrate preincubated for 15 mins followed by substrate addition and measured for 5 mins; set-up: species or system Tetronarce californica
[27] = Binding affinity to Cu2+ assessed as pCu at pH 7.4 by potentiometric/UV-Vis spectrophotometric method
[28] = Octanol/water partition coefficient, log P of the compound shaken for 45 mins and measured after 15 mins; assay type: physicochemical; conditions: time 60 min
[29] = tested on: Staphylococcus aureus; experiment: Antibacterial activity against Staphylococcus aureus ATCC 25913 incubated for 20 hrs by CLSI-based broth microdilution method; assay type: functional
[30] = tested on: Enterococcus faecalis; experiment: Antibacterial activity against Enterococcus faecalis incubated for 20 hrs by CLSI-based broth microdilution method; assay type: functional
[31] = tested on: Staphylococcus epidermidis; experiment: Antibacterial activity against Staphylococcus epidermidis incubated for 20 hrs by CLSI-based broth microdilution method; assay type: functional
[32] = tested on: Enterococcus faecium; experiment: Antibacterial activity against Enterococcus faecium BM4105 incubated for 20 hrs by CLSI-based broth microdilution method; assay type: functional

T2 sequence (O42275 whole entry): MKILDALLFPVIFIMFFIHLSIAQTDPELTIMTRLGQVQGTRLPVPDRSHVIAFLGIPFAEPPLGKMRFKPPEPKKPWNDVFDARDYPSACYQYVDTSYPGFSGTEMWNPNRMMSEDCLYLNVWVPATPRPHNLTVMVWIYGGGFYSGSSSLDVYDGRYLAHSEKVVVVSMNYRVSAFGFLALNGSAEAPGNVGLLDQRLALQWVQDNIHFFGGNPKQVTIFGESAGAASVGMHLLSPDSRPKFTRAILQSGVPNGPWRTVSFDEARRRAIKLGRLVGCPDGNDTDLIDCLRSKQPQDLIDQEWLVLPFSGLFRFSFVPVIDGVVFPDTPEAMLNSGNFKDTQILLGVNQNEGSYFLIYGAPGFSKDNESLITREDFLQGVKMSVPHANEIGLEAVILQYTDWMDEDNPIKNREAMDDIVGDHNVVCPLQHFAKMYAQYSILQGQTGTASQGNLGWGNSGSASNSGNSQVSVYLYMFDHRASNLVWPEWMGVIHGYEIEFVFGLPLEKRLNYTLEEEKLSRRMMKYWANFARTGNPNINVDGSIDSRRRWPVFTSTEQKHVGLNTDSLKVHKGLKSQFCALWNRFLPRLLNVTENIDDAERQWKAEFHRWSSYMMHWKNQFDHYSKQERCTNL
T1 sequence (P05067 whole entry): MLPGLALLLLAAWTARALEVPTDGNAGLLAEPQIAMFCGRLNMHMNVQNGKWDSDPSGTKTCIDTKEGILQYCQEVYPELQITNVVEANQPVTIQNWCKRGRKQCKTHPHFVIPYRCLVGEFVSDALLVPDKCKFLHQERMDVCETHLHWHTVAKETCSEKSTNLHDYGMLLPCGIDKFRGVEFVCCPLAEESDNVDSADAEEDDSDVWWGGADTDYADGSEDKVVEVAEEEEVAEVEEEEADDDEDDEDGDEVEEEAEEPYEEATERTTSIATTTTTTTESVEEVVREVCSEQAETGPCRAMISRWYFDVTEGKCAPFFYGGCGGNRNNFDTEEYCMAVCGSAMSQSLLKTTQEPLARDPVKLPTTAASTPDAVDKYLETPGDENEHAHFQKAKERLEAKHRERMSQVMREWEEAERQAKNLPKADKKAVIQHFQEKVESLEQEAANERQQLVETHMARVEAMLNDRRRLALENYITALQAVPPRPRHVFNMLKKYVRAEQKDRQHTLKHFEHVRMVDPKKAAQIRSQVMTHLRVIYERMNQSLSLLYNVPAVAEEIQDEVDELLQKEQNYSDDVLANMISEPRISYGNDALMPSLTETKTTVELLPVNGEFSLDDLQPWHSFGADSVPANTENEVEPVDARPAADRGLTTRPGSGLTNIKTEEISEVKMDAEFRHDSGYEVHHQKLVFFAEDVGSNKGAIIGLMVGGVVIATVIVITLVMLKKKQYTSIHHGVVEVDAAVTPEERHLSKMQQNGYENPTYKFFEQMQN
Sequence of Acetylcholinesterase (Torpedo californica, UniProt P04058) (P04058 whole entry): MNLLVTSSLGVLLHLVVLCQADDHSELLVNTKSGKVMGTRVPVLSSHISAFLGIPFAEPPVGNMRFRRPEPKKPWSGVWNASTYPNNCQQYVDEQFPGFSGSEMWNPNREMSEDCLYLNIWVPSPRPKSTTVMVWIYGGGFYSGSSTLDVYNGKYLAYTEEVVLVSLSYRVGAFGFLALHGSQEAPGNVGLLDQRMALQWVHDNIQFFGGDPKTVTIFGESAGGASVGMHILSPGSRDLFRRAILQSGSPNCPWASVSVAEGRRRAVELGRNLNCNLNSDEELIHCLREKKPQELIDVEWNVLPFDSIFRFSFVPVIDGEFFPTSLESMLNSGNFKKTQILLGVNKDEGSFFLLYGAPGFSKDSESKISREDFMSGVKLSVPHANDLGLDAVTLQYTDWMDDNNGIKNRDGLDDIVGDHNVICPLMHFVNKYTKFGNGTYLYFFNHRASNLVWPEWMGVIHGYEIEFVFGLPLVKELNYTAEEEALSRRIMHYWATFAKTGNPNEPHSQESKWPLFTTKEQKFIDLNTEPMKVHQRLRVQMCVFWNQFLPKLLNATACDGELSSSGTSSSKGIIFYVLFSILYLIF

SMILES: CCn1ccc(=O)c(O)c1C(C)O (centres undefined)
- Efficacy [1]: 54.5%
- Activity [2]: 21.4

SMILES: O=c1cc(/C=C/c2nc3ccc(O)cc3s2)occ1O
- IC50 [3]: 5.06 µM
- inhibition [4]: 78.3%
- Activity [5]: 6.03

SMILES: CCCC(=O)NC(CCCNC(=O)c1c(O)c(=O)ccn1CCO)(CCCNC(=O)c1c(O)c(=O)ccn1CCO)CCCNC(=O)c1c(O)c(=O)ccn1CCO
- MIC [6]: 16 µg/mL (≈ 19.6 µM)
- MIC [7]: 8 µg/mL (≈ 9.81 µM)
- MIC [8]: 8 µg/mL (≈ 9.81 µM)
- MIC [9]: 8 µg/mL (≈ 9.81 µM)

SMILES: CC(=O)N(O)CCCCCNC(=O)CCC(=O)N(O)CCCCCNC(=O)CCC(=O)N(O)CCCCCN [DEFEROXAMINE]
- Activity [10]: -468 mV
- Activity [11]: 26.6

SMILES: CNC(=O)c1[nH]c(C)cc(=O)c1O
- Efficacy [12]: 50.1%
- IC50 [13]: 20 µM
- Activity [14]: 22.8

SMILES: O=c1cc(/C=C/c2nc3ccccc3o2)occ1O
- IC50 [3]: 7.05 µM
- inhibition [4]: 65%
- Activity [5]: 4.29

SMILES: CCCC(=O)NC(CCCNC(=O)c1c(O)c(=O)ccn1C)(CCCNC(=O)c1c(O)c(=O)ccn1C)CCCNC(=O)c1c(O)c(=O)ccn1C
- MIC [6]: 16 µg/mL (≈ 22 µM)
- MIC [7]: 8 µg/mL (≈ 11 µM)
- MIC [8]: 8 µg/mL (≈ 11 µM)
- MIC [9]: 8 µg/mL (≈ 11 µM)

SMILES: CC(=O)NCCOCCOCCn1ccc(=O)c(O)c1C
- logD [15]: -2.01

SMILES: CC(=O)N(C)O
- Activity [11]: 13

SMILES: Cc1c(O)c(=O)ccn1CC(=O)NCCNc1c2c(nc3cc(Cl)ccc13)CCCC2
- IC50 [16]: 0.64 µM

SMILES: Cc1c(O)c(=O)ccn1CC(=O)NCCCNc1c2c(nc3ccccc13)CCCC2
- IC50 [16]: 0.64 µM

SMILES: CCc1c(O)c(=O)ccn1CCCn1cc(COc2cc3ccccc3oc2=O)nn1
- Activity [17]: 17.1

SMILES: Cc1c(O)c(=O)ccn1CC(=O)NCC(O)CNc1c2c(nc3ccccc13)CCCC2 (centres undefined)
- inhibition [18]: 86%
- EC50 [19]: 399 µM
- IC50 [16]: 0.96 µM
- Activity [11]: 21.7

SMILES: C=CCN1C(c2ccccn2)CC(=O)C(C(=O)OC)C1c1ccccn1 (centres undefined)
- IC50 [20]: 1.4 µM

SMILES: Cc1c(OC(N)=O)c(=O)ccn1-c1ccccc1
- IC50 [21]: 48.8 µM

SMILES: Cc1c(OCc2ccccc2)c(=O)ccn1-c1ccc(CC(=O)NCc2ccc(-c3nc4ccccc4s3)cc2)cc1
- IC50 [22]: 13.8 µM
- inhibition [18]: 68.9%
- IC50 [23]: > 1000 µM

SMILES: Cc1c(O)c(=O)ccn1CC(=O)NCCCNc1c2c(nc3cc(Cl)ccc13)CCCC2
- inhibition [18]: 95.2%
- EC50 [19]: 1110 µM
- IC50 [16]: 0.86 µM

SMILES: COc1cccc2cc(C(=O)NCCn3ccc(=O)c(O)c3C)oc12
- inhibition [24]: 49.8%
- Activity [25]: 17.3
- EC50 [23]: 199 µM
- IC50 [26]: 246 µM
- Activity [27]: 6.5

SMILES: Cc1c(O)c(=O)ccn1C [DEFERIPRONE]
- logP at 1 h [28]: 0.17
- Efficacy [12]: 13.4%
- IC50 [13]: 102 µM
- Activity [10]: -620 mV
- Activity [11]: 20.4

SMILES: CCN(CC)c1ccc2c(-c3ccc(C(=O)NCc4c(O)c(=O)cc(C)n4C)cc3)c3ccc(=[N+](CC)CC)cc-3oc2c1
- MIC [29]: 11 µM
- MIC [30]: 11 µM
- MIC [31]: 11 µM
- MIC [32]: 11 µM

SMILES: CNC(=O)c1c(O)c(=O)cc(C)n1C
- Efficacy [12]: 58.7%
- IC50 [13]: 33.3 µM
- Activity [14]: 21.7

SMILES: COc1cccc2cc(C(=O)NCCn3ccc(=O)c(OCc4ccccc4)c3C)oc12
- inhibition [24]: 36.1%
- EC50 [23]: > 1000 µM
- IC50 [26]: 76 µM

SMILES: CCCC(=O)NC(CCCNC(=O)c1c(O)c(=O)ccn1CC)(CCCNC(=O)c1c(O)c(=O)ccn1CC)CCCNC(=O)c1c(O)c(=O)ccn1CC
- MIC [6]: 32 µg/mL (≈ 41.7 µM)
